How the values were obtained:
[1] = tested on: breast cancer cells (MCF-7, MDA-MB-231, MDA-MB-453); test: Annexin V-FITC/PI apoptosis, breast cancer cells together; format: cell-based; conditions: peptides 30 μM (no FITC), tamoxifen 15 µM, 48 h; vs Cont
Procedure: The cells were collected by trypsinization and washed twice by ice-cold PBS, followed by Annexin V-FITC and propidium iodide (PI) staining for 10 min using the reagents in an Annexin V-FITC Apoptosis Detection Kit (Vazyme Biotech Co. Ltd., Nanjing, China). The ratios of apoptotic cells were evaluated using flow cytometry (AccuriC6, BD Biosciences, San Jose, CA, USA).

His×6-YY1 = His×6-YY1 (Homo sapiens, UniProt P25490); test: GST pull-down of His×6-YY1 by GST-EZH2 mutants; format: binding; conditions: 1.0 µg His×6-YY1, 4 h
Description: (§1) HA-tagged expression vectors of wild-type (wt) and mutant YY1 were constructed by amplifying and subcloning the corresponding fragments of the YY1 coding region into the pcDNA3 vector. To generate EZH2 mutants, different regions of its coding sequence (1–251, 252–384, 385–618, 619–751, 385–465, 465–545, 545–618, 465–492, and 465–519) were amplified and subcloned into pGEX-4T-1 and pSL4-3×Flag plasmids to construct vectors expressing recombinant GST-EZH2 and 3×Flag-EZH2 mutants, respectively. To generate vectors expressing 3×Flag-YPB, -OPB, and -Cont (with a scrambled sequence of […]) peptides, their coding sequences were individually subcloned into a lentiviral vector pSL4 using the CMV promoter to drive the expression of 3×Flag-YPB-2A1-EGFP, 3×Flag-OPB-2A1-EGFP, and 3×Flag-Cont-2A1-EGFP. […] Two shRNAs against PTENP1 (shPTENP1-1 and shPTENP1-2, with target sequences of […] and […], respectively), and one control shRNA (with a scrambled target sequence of […]) driven by the U6 promoter were generated in a lentiviral vector with a puromycin selection marker as we previously described. In addition, we also generated lentiviruses expressing two shRNAs (shYY1-1 and shYY1-2, with target sequences of […] and […], respectively), and two EZH2 (shEZH2-1 and shEZH2-2, with target sequences of […] and […]-[…], respectively).
The GST fusion protein expressed in E. coli was lysed with the binding buffer (20 mM Tris⋅HCl, pH 7.5, 150 mM NaCl, 0.1% Nonidet P-40, 1 mM dithiothreitol, 10% glycerol, 1 mM EDTA, 2.5 mM MgCl2, and 1 µg/mL leupeptin) for 30 min at 4 °C. Glutathione-Sepharose beads (Thermo Fisher Scientific) were incubated with bacterial lysates containing expressed recombinant GST-EZH2 mutant proteins for 4 h at 4 °C. After extensive washing of the beads, 1.0 µg of purified His×6-YY1 was added, and the samples were incubated for another 4 h. The washed beads with bound proteins were resuspended in an SDS-containing sample buffer and analyzed by SDS-PAGE.

HA-YY1 = test: Co-IP of Flag-EZH2 wt/mutants with HA-YY1; format: binding; conditions: co-IP, Flag-tagged EZH2 and HA-YY1
Description: as §1
Immunoprecipitations were performed as described previously. Cells were harvested and lysed in cell lysis buffer (50 mM Tris⋅HCl, pH 7.5, 150 mM NaCl, 1% Nonidet P-40, 0.5% sodium deoxycholate, and 1% protease inhibitor cocktails, Sigma-Aldrich). […] In Western blot studies, protein concentrations of samples were determined using the Bradford protein method, and 20 μg of proteins for each sample were separated by SDS-PAGE followed by transfer to polyvinylidene difluoride (PVDF) membranes. […]
Figure 1 Identification of YY1 binding site on EZH2 protein. […] The samples were analyzed by Western blot using EZH2 and YY1 antibodies as indicated. […]

Chain of His×6-YY1 (P25490 whole entry, the tested form may be a part): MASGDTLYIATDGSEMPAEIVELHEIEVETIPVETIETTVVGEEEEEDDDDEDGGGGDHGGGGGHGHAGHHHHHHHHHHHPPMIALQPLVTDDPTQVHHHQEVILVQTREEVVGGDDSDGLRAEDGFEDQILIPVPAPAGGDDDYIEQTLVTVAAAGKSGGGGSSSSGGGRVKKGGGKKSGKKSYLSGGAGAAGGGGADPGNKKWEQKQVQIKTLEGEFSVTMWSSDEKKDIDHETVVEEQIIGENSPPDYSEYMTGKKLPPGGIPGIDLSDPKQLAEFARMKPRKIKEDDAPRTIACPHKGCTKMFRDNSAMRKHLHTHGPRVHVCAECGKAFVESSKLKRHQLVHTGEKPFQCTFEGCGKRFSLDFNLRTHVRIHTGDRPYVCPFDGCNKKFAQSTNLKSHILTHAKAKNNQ

Row | Compound | interaction with His×6-YY1 in GST pull-down (His×6-YY1) | interaction with HA-YY1 in co-IP (HA-YY1) | further results
1 | CC/C(=C(\c1ccccc1)c1ccc(OCCN(C)C)cc1)c1ccccc1 [tamoxifen] | – | – | pro-apoptotic portions of breast cancer cells [1]: could significantly increase the pro-apoptotic portions
2 | GST-EZH2 (385–618): GST fusion of EZH2 residues 385–618 | could interact with His×6-YY1 | – | –
3 | GST-EZH2 (465–519): GST fusion of EZH2 residues 465–519 | could interact with His×6-YY1 | – | –
4 | Flag-EZH2 wt: Flag-tagged wild-type EZH2 | – | could bring down HA-YY1 | –
5 | GST-EZH2 (465–545): GST fusion of EZH2 residues 465–545 | could also pull down His×6-YY1 | – | –
6 | EZH2 (465–545): Flag-tagged EZH2 mutant 465–545 | – | could interact with HA-YY1 | –
7 | (385–618): Flag-tagged EZH2 region 385–618 | – | could bring down HA-YY1 | –

— PMC8156467, “Disruption of YY1-EZH2 Interaction Using Synthetic Peptides Inhibits Breast Cancer Development” (Cancers, 2021)
